Results: patent US20220087983A1, “ACTIVATING PYRUVATE KINASE R” (FORMA Therapeutics, Inc., priority 2020, published 2022)
“Also recorded” adds a separate entry of the source.

What was measured:
[1] = target: T1, CYP2C19 (Homo sapiens, UniProt P33261); assay: Single substrate DDI assay, reversible CYP inhibition in human liver microsomes; assay type: in vitro ADME
T1 construct: from tissue; host or cells: human liver microsomes

[2] = target: T2, CYP3A4 (Homo sapiens, UniProt P08684); assay: as above; assay type: in vitro ADME
T2 construct: from tissue; host or cells: human liver microsomes
T2 sequence (P08684 whole entry): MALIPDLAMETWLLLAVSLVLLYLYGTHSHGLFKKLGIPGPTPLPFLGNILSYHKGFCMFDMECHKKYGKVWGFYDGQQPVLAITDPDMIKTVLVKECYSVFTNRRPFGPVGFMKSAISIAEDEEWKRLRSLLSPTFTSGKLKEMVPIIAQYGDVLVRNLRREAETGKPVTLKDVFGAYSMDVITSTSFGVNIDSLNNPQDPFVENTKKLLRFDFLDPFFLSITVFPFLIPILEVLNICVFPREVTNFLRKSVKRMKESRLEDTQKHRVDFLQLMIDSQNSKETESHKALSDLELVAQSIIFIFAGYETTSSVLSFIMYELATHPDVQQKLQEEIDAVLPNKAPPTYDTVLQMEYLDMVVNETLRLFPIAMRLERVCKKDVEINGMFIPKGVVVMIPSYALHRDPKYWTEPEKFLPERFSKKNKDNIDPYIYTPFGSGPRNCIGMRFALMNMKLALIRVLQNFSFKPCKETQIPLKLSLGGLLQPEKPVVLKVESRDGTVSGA

[3] = tested on: ATP blood levels; assay: Phase 1: blood ATP levels in healthy volunteers (LC-MS/MS); assay type: in vivo, human; conditions: for Mean maximum percent change from baseline in ATP: all doses and timepoints
Protocol: In this study, SAD/MAD cohorts are randomized (3 to 1) to receive Compound 1 or placebo (P). Compound 1 was evaluated first in 4 healthy SAD cohorts and 4 healthy MAD (14-day dosing period) cohorts. Based on the safety, and PK/PD profile from HS, Compound 1 is then evaluated in 1 SCD SAD cohort and 2 SCD MAD cohorts. Specifically, based on the safety and pharmacokinetic/pharmacodynamics (PK/PD) profile in healthy volunteer studies, Compound 1 is evaluated in patients (pts) with SCD, first in a single dose (SD or SAD) cohort and then in multiple-dose (MD or MAD) cohorts (14-day and 12-week). Safety assessments include AEs, vital signs, ECGs and laboratory parameters. PK/PD blood sampling was performed on Day 1 (SAD/MAD) and Day 14 (MAD) and up to 72 h after the last dose and at the end-of-study visit. PD parameters included 2,3-DPG, ATP, and p50 in all cohorts with additional PD studies (including oxygen scan) performed only in the SCD cohorts. PD parameters included 2,3-DPG, ATP, p50, RBC deformability with controlled deoxygenation and reoxygenation (Lorrca® oxygen scan) and varying osmolality (Lorrca® osmoscan)). To maintain study blind, pt identifiers were removed when needed.
In the MAD cohorts, the subjects' blood ATP levels were measured […] by a qualified LC-MS/MS method for the quantitation of ATP in blood. […] Table 20A reports the median percentage change in blood ATP levels, relative to baseline, measured over time after the first dose on days 1 and 14 in healthy volunteers who received daily doses of Compound 1 (100 mg BID, 200 mg BID, 300 mg BID, or 400 mg QD) or placebo for 14 days. Table 20B reports the mean percentage change in ATP blood levels, relative to baseline, measured over time after the first dose on days 1 and 14 in healthy volunteers who received daily doses of Compound 1 (100 mg BID, 200 mg BID, 300 mg BID, or 400 mg QD) for 14 days.
The following procedures are employed for the analysis of ATP and 2,3-DPG in human whole blood K2EDTA using a protein precipitation extraction procedure and analysis by LC-MS/MS. […]

[4] = tested on: estradiol and testosterone levels; assay: Circulating estradiol and testosterone in healthy subjects, 14 days; assay type: in vivo, human; conditions: up to 14 days, 100-300 mg BID, 400 mg QD
Protocol: Effects on circulating levels of estradiol and testosterone in male and female healthy subjects receiving Compound 1 or placebo for a treatment period of 14 days were evaluated. Compound 1 was administered twice daily (BID) at dose levels of 100 mg, 200 mg, and 300 mg, and once daily (QD) at a dose level of 400 mg. Each dosing cohort was comprised of 9 subjects treated with Compound 1 and 3 subjects treated with placebo. Testosterone and estradiol levels were assessed prior to dosing (baseline), and then on days 8, 14 and 17.

[5] = target: T3, aromatase (Homo sapiens, UniProt P11511); assay: Aromatase inhibition; conditions: non-clinical testing
T3 sequence (P11511 1-503): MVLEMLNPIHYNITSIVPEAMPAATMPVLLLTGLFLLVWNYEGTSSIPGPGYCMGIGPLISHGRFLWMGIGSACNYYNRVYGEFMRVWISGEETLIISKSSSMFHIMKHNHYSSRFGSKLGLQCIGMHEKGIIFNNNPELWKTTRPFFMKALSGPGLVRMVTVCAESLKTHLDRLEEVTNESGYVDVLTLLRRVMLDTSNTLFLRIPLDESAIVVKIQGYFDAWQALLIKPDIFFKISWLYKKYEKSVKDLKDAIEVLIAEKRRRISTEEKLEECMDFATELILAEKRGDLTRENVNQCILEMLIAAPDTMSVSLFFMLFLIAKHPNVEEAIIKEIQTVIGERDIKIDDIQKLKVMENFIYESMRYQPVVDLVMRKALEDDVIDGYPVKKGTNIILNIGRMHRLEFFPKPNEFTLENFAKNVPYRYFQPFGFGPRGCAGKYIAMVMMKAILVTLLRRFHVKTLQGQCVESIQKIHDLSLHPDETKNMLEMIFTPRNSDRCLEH

[6] = target: T4, CYP2D6 (Homo sapiens, UniProt P10635); assay: Single substrate DDI assay, reversible CYP inhibition in human liver microsomes; assay type: in vitro ADME
T4 construct: from tissue; host or cells: human liver microsomes
T4 sequence (P10635 whole entry): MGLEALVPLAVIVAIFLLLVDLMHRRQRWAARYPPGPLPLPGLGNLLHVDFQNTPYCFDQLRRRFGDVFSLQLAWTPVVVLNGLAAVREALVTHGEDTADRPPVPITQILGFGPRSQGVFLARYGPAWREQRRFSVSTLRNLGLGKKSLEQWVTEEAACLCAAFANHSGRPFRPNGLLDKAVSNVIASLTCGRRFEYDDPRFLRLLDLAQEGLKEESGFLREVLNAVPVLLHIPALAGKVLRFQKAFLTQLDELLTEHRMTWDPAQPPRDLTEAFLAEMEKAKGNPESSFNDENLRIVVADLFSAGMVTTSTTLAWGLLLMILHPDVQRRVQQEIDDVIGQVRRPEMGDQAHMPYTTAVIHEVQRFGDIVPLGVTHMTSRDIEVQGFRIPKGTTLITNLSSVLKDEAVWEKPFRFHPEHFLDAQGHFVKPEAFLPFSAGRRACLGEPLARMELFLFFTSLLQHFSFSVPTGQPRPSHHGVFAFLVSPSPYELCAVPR

T1 sequence (P33261 whole entry): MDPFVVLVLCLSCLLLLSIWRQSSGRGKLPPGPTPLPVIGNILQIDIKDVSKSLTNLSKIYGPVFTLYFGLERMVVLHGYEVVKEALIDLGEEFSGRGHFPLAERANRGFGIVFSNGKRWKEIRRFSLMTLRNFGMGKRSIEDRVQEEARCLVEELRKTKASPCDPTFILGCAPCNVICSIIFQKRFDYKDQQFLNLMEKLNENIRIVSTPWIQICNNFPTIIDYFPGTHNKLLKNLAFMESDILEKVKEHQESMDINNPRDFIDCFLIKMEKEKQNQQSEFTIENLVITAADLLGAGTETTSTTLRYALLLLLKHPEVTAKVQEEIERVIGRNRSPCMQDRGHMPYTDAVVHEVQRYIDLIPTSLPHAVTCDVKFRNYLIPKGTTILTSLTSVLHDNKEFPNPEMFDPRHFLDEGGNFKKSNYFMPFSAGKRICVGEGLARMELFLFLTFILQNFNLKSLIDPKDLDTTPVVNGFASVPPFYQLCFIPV

O=C([C@H](CO)c1ccccc1)N1CC2=C(C1)CN(S(=O)(=O)c1cnc3c(c1)OCCO3)C2 (single isomer, unassigned) [Compound 1]
IC50 [1]: > 30 µM | IC50 [2]: > 30 µM | Mean maximum percent change from baseline in ATP ([3]; HV MAD, N = 36): 68.5% | Mean maximum percent change from baseline in ATP ([3]; HV SAD, N = 24): 24.4% | lag of maximum ATP increase behind maximum plasma concentration ([3]; HV, single 200-1000 mg dose): at least 24 hours | effect on testosterone and estradiol levels [4]: No effect; also recorded: no statistically significant changes | aromatase inhibition [5]: absence of aromatase inhibition | IC50 [6]: > 30 µM
